Experimental data as given in patent US9920010B2, “CXCR7 receptor modulators” (IDORSIA PHARMACEUTICALS LTD, priority 2013, dated 2018).

target: T1, CXCR7 (Homo sapiens, UniProt P25106); assay: PathHunter CHO-K1 CXCR7 b-arrestin recruitment assay (CXCR7 agonistic activity); format: cell-based; conditions: PathHunter CHO-K1 CXCR7 b-arrestin cell line
T1 construct: host or cells: CHO-K1 (PathHunter CHO-K1 CXCR7 b-arrestin cell line, stably transfected)
Outline: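 Stable CHO-K1 line with C-terminally ProLink-tagged CXCR7 and β-arrestin 2–EA fusion; β-arrestin recruitment restores β-gal activity, read by chemiluminescence after 1 h RT detection. Cells seeded 24 h, starved in OPTIMEM 3–4 h, exposed to compounds 90 min at 37 °C in HBSS/HEPES/BSA. Geometric-mean EC50 from repeated measurements.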

T1 sequence (P25106 whole entry): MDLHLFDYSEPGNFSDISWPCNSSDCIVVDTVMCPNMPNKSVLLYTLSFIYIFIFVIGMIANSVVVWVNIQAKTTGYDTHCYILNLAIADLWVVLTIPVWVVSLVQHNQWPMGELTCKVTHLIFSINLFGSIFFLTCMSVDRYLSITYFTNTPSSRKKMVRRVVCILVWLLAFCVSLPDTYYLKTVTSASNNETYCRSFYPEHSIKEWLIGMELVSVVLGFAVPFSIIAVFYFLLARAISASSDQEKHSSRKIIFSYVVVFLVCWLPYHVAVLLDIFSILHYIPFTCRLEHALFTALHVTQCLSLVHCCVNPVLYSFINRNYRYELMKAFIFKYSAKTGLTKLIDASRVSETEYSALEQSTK
T1 sequence (P32121 whole entry partner): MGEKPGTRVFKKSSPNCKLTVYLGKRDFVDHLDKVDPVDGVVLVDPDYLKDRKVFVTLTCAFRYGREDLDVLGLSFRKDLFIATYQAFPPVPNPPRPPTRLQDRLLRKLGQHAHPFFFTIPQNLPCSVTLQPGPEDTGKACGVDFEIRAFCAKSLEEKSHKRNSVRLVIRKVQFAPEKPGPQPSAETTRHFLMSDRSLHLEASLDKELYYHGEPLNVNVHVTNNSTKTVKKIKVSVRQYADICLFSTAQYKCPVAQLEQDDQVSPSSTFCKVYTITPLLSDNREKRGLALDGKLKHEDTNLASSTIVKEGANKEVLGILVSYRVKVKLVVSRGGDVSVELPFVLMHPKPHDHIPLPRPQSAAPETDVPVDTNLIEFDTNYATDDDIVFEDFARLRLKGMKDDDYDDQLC

Row | SMILES | EC50 [nM]
1 | O=C(CNc1cccc2c1CCN(CC1CC1)C2)N(CCN1CCNC1=O)Cc1ccccc1C(F)(F)F [Example 79, 2-(2-Cyclopropylmethyl-1,2,3,4-tetrahydro-isoquinolin-5-ylamino)-N-[2-(2-oxo-imidazolidin-1-yl)-ethyl]-N-(2-trifluoromethyl-benzyl)-acetamide] | 135
2 | O=C(CNc1cccc2c1CCN(CC1CC1)C2)N(CCOCc1ccccc1)Cc1ccccc1C(F)(F)F [Example 82, N-(2-Benzyloxy-ethyl)-2-(2-cyclopropylmethyl-1,2,3,4-tetrahydro-isoquinolin-5-ylamino)-N-(2-trifluoromethyl-benzyl)-acetamide] | 158
3 | CN(CCN(Cc1ccccc1C(F)(F)F)C(=O)CNc1cccc2c1CCN(CC1CC1)C2)C(=O)OC(C)(C)C [Example 83, {2-[[2-(2-Cyclopropylmethyl-1,2,3,4-tetrahydro-isoquinolin-5-ylamino)-acetyl]-(2-trifluoromethyl-benzyl)-amino]-ethyl}-methyl-carbamic acid tert-butyl ester] | 88
4 | CC(C)(C)OC(=O)N1[C@H](CN(Cc2ccccc2C(F)(F)F)C(=O)CNc2cccc3c2CCN(CC2CC2)C3)COC1(C)C [Example 84, (R)-4-{[[2-(2-Cyclopropylmethyl-1,2,3,4-tetrahydro-isoquinolin-5-ylamino)-acetyl]-(2-trifluoromethyl-benzyl)-amino]-methyl}-2,2-dimethyl-oxazolidine-3-carboxylic acid tert-butyl ester] | 272
5 | CN(C)CCN(Cc1ccccc1)C(=O)CNc1cccc2c1CCN(CC(F)(F)F)C2 [Example 85, N-Benzyl-N-(2-dimethylamino-ethyl)-2-[2-(2,2,2-trifluoro-ethyl)-1,2,3,4-tetrahydro-isoquinolin-5-ylamino]-acetamide] | 187
6 | CN(C)CCN(Cc1ccccc1C(F)(F)F)C(=O)CNc1cccc2c1CCN(CC(F)(F)F)C2 [Example 86, N-(2-Dimethylamino-ethyl)-2-[2-(2,2,2-trifluoro-ethyl)-1,2,3,4-tetrahydro-isoquinolin-5-ylamino]-N-(2-trifluoromethyl-benzyl)-acetamide] | 23
7 | CN(C)CCN(Cc1ccccc1C(F)(F)F)C(=O)CN(C)c1cccc2c1CCN(CC1CC1)C2 [Example 87, 2-[(2-Cyclopropylmethyl-1,2,3,4-tetrahydro-isoquinolin-5-yl)-methyl-amino]-N-(2-dimethylamino-ethyl)-N-(2-trifluoromethyl-benzyl)-acetamide] | 3
8 | CN(C)CCN(Cc1ccccc1C(F)(F)F)C(=O)CNc1c(Cl)ccc2c1CCN(CC1CC1)C2 [Example 88, 2-(6-Chloro-2-cyclopropylmethyl-1,2,3,4-tetrahydro-isoquinolin-5-ylamino)-N-(2-dimethylamino-ethyl)-N-(2-trifluoromethyl-benzyl)-acetamide] | 11
9 | COc1ccc2c(c1NCC(=O)N(CCN(C)C)Cc1ccccc1C(F)(F)F)CCN(CC1CC1)C2 [Example 89, 2-(2-Cyclopropylmethyl-6-methoxy-1,2,3,4-tetrahydro-isoquinolin-5-ylamino)-N-(2-dimethylamino-ethyl)-N-(2-trifluoromethyl-benzyl)-acetamide] | 8
10 | CN(C)CCN(Cc1ccccc1C(F)(F)F)C(=O)CNc1cccc2c1C(C)(C)CN(C(=O)OC(C)(C)C)C2 [Example 90, 5-({[(2-Dimethylamino-ethyl)-(2-trifluoromethyl-benzyl)-carbamoyl]-methyl}-amino)-4,4-dimethyl-3,4-dihydro-1H-isoquinoline-2-carboxylic acid tert-butyl ester] | 32
11 | CN(C)CCN(Cc1ccccc1C(F)(F)F)C(=O)CNc1cccc2c1C(C)(C)CN(CC1CC1)C2 [Example 91, 2-(2-Cyclopropylmethyl-4,4-dimethyl-1,2,3,4-tetrahydro-isoquinolin-5-ylamino)-N-(2-dimethylamino-ethyl)-N-(2-trifluoromethyl-benzyl)-acetamide] | 1
